# Patent US6084072A, “Purified lectin and methods of use” (The Regents of the University of Michigan, priority 1993, dated 2000)
# pIC50: −log10 of the molar value. Entries after “also recorded” stand apart in the source; their conditions may differ.
# Assays:
# [1] = target: T1, Artocarpus intergrifolia lectin (Artocarpus integer, UniProt P18670); settings: cited from earlier work
# T1 construct: host or cells: Artocarpus integrifolia seeds
# amaranthin [2] = target: T2, amaranthin (Amaranthus caudatus, UniProt Q71QF2); experiment: Hapten inhibition of amaranthin/asialo-ovine submaxillary mucin precipitation; format: binding; settings: for Relative Inhibition potency ACA: N-Acetylgalactosamine = 1
# Procedure: (§1) Precipitation assays were conducted in 1.5 ml centrifuge tubes by the method of So and Goldstein. Indicated amounts of glycoprotein were added to 80 μg of amaranthin, and the total volume was adjusted to 250 μl with phosphate buffered saline. The tubes were incubated at 37° C. and then kept at 4° C. for 2 days. The precipitates were centrifuged, washed with cold Phosphate buffered saline, dissolved in 0.05 N NaOH and analyzed for protein by the method of Lowery et al. using bovine serum albumin as the standard. Hapten inhibition assays were carried out using 80 μg of amaranthin, 5 μg of asialo-ovine submaxillary mucins, and the indicated sugar concentrations. Inhibition was determined relative to the amount of precipitate formed in the control with no sugar added. All precipitation assays were conducted in duplicate to bring the tolerance within ±5% and the amount of precipitate formed average.
# PNA [3] = target: T3, PNA (Arachis hypogaea, UniProt P02872); experiment: Hapten inhibition of PNA/asialoglycophorin precipitation; format: binding; settings: Galactose = 1; 40 μg PNA, 6 μg asialoglycophorin
# T3 construct: purchased E.Y. Laboratories, San Mateo, Calif; (donated by Dr. A. Chu)
# T3 sequence (P02872 24-273): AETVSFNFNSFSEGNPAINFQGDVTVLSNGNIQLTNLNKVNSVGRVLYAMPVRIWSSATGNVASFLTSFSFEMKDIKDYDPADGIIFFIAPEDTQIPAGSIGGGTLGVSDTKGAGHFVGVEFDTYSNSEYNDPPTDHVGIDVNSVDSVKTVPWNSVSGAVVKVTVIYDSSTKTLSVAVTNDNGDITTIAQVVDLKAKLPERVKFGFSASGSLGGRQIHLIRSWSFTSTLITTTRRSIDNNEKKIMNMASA
# Procedure: (§2) Precipitation reactions with PNA were carried out similarly, except that 40 μg of PNA was used. Hapten inhibition studies with PNA used 40 μg of PNA, 6 μg of asialoglycophorin, and the indicated sugar concentrations.
# amaranthin [4] = target: T2, amaranthin; experiment: Elution of amaranthin from Synsorb-T column; format: binding
# Source text: The unbound material was washed from the Synsorb-T beads with phosphate buffered saline (PBS), and the A. caudatus lectin was eluted with 0.1 N acetic acid, pH 3. The Synsorb-T beads are fine particles of diatomaceous earth, or sand material bonded to the disaccharide Galβ1,3GalNAcα-O--(CH2)8 CO. […] Thus, it was necessary to reapply the unbound material to the affinity column to obtain the remaining lectin.
# Elution of amaranthin from the affinity columns with non-specific agents was employed due to the expense and limited availability of Galβ1,3GalNAc, the best binding ligand. GalNAc (0.5 M) was effective in displacing amaranthin from the Synsorb-T matrix. However, when amaranthin (0.9 mg) was applied to a small Synsorb-T column (0.58 ml), it was observed that 100 μM Galβ1,3GalNAcα-O-benzyl eluted the lectin.
# PNA [5] = target: T3, PNA; settings: reported by Lotan, Pereira; cited from earlier work
# amaranthin [6] = target: T2, amaranthin; experiment: Precipitation of amaranthin by glycoproteins and glycoconjugates, native or glycosidase treated; format: binding; settings: for Precipitate formation with amarantin: Glycosidase: β-Galactosidase; for precipitation of amaranthin, in words: untreated glycoprotein or glycoconjugate, 80 μg amaranthin
# Procedure: Glycosidase digestions, and in particular exo-β-galactosidase digestions were carried out for 9 hours at 37° C. in 0.1 M sodium citrate, pH 4.3 using 0.1 unit of enzyme/μmol of terminal galactosyl group. Endo-α-N-acetylgalactosaminidase treatment of asialo-ovine submaxillary mucin was done as described in Sadler, J. E., Rearick, J. L., Paulson, J. C., and Hill, R. L. (1979). GSC Exo-α-N-acetylgalactosaminidase digestion of asialo-ovine submaxillary mucin was carried out according to the recommendations of Genzyme of Boston, Mass. Glycoproteins were analyzed for carbohydrate composition, before and after glycosidase treatment, as described.
# as §1
# PNA [7] = target: T3, PNA; experiment: Precipitation reactions with PNA; format: binding
# Procedure: as §2
# PNA [8] = target: T3, PNA; settings: reported by Pereira; cited from earlier work
# T2 sequence (Q71QF2 entry or part of it): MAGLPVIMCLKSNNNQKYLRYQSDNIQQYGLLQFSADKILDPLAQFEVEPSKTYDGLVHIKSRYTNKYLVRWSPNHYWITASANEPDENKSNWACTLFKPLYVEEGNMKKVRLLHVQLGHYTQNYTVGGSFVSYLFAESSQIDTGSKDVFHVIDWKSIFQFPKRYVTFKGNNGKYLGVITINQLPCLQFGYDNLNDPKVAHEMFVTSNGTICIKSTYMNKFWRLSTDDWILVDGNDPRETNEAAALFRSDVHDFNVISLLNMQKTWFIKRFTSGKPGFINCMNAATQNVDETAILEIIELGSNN
# T1 sequence (P18670 whole entry): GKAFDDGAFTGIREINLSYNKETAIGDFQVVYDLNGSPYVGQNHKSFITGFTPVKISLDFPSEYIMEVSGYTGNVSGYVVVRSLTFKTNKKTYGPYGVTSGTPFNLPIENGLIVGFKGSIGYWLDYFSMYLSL
# T1 sequence (P18673 whole entry partner): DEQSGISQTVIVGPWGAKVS
compound,measurement,setting,value
"CC(=O)N[C@H]1C(O)O[C@H](CO)[C@H](O)[C@@H]1O[C@@H]1O[C@H](CO)[C@H](O)[C@H](O)[C@H]1O (stereo partly shown) [Galβ1,3GalNAc]",times more potent than GalNAc,[1],37
same,times more potent than galactose,[1],100
same,pIC50,amaranthin [2],5.47
same,Relative Inhibition potency ACA,amaranthin [2],232
"CC(=O)N[C@H]1[C@@H](OCc2ccccc2)O[C@H](CO)[C@H](O)[C@@H]1O[C@@H]1O[C@H](CO)[C@H](O)[C@H](O)[C@H]1O [Galβ1,3GalNAcα-O-benzyl]",Relative Inhibition potency PNA,PNA [3],50
same,pIC50,amaranthin [2],5.80
same,Relative Inhibition potency ACA,amaranthin [2],494
same,concentration that eluted the lectin,amaranthin [4]; 0.9 mg amaranthin on 0.58 ml Synsorb-T column,100 µM
"CC(=O)N[C@H]1C(O)O[C@H](CO)[C@@H](O[C@@H]2O[C@H](CO)[C@H](O)[C@H](O)[C@H]2O)[C@@H]1O (stereo partly shown) [Galβ1,4GlcNAc]",Relative Inhibition potency ACA,amaranthin [2],< 0.008
same,"inhibition of PNA, in words",PNA [5],rather good inhibitors
"CC(=O)N[C@H]1[C@H](O[C@H]2[C@@H](O)[C@@H](CO)O[C@@H](O[C@H]3[C@@H](O)[C@@H](CO)O[C@H](OCc4ccccc4)[C@@H]3NC(C)=O)[C@@H]2O)O[C@H](CO)[C@@H](O)[C@@H]1O [GlcNAcβ1,3Galβ1,3GalNAcα-O-benzyl]",Relative Inhibition potency PNA,PNA [3],< 10
same,pIC50,amaranthin [2],4.60
same,"decrease of potency by a factor, against Galβ1,3GalNAcα-O-benzyl",amaranthin [2]; C'-3 substitution with GlcNAc,10
same,Relative Inhibition potency ACA,amaranthin [2],32
same,"fold lower reactivity compared with NeuAcα2,3Galβ1,3GalNAcα-O",amaranthin [2]; amaranthin,10
CO[C@H]1O[C@H](CO)[C@H](O)[C@H](O)[C@H]1O [Methyl α-galactoside],Relative Inhibition potency PNA,PNA [3],2.2
same,Relative Inhibition potency ACA,amaranthin [2],< 0.003
CO[C@@H]1O[C@H](CO)[C@H](O)[C@H](O)[C@H]1O [Methyl β-galactoside],Relative Inhibition potency PNA,PNA [3],0.8
same,Relative Inhibition potency ACA,amaranthin [2],< 0.003
CC(=O)N[C@H]1C(O)O[C@H](CO)[C@H](O)[C@@H]1O (stereo partly shown) [N-Acetylgalactosamine],Relative Inhibition potency PNA,PNA [3],< 0.4
same,pIC50,amaranthin [2],3.10
same,"times less potent than Galβ1,3GalNAcα-O--R (α-linked T-antigen disaccharides)",amaranthin [2]; inhibitor of amaranthin,350
same,"inhibition of amaranthin/AOSM precipitation, in words",amaranthin [2]; listed as GalNAc,only monosaccharide found to inhibit; also recorded: inhibited by GalNAc
same,concentration effective in displacing amaranthin from the Synsorb-T matrix,amaranthin [4],0.5 M
"Asialo-glycopeptide Mt: NH2-terminal 39 amino acids of asialoglycophorin with 12 Galβ1,3GalNAcα-O residues and one N-linked oligosaccharide (LSTTEVAMHTSTSSSVTKSYISSQTNDTHKRDTYAATPR; desialylated glycans; UniProt P02724 20-58, looked up, fragment)",Precipitate formation with amarantin,amaranthin [6],No
same,Precipitate formation with amarantin,amaranthin [6]; listed as asialo-glycopeptide Mt,reactivity was eliminated; also recorded: no longer precipitates
same,"precipitation of amaranthin, in words",amaranthin [6],reacted strongly; also recorded: reacts very well with amaranthin
Asialofetuin: desialylated fetuin,"precipitation of amaranthin, in words",amaranthin [6],precipitated a small amount of amaranthin; also recorded: weak precipitation reaction
"Galβ1,3GalNAcβ-O-BSA","precipitation of PNA, in words",PNA [7],react equally well
"Galβ1,3[NeuAcα2,6]GalNAcα-O-BSA","precipitation of amaranthin, in words",amaranthin [6],good precipitating agents; also recorded: can precipitate amaranthin
"Galβ,3GalNAcα-O-BSA","precipitation of PNA, in words",PNA [7],react equally well
same,"precipitation of amaranthin, in words",amaranthin [6],good precipitating agents
same,"precipitation of amaranthin, in words","amaranthin [6]; listed as Galβ1,3GalNAcα-O-BSA",can be precipitated by
"NeuAcα2,3Galβ1,3GalNAcα-OBSA","precipitation of PNA, in words",PNA [7],not precipitated
same,"precipitation of amaranthin, in words",amaranthin [6],good precipitating agents
asialo-α1 -acidglycoprotein: desialylated α1-acid glycoprotein,"precipitation of / reaction with PNA, in words",PNA [8],precipitated by
same,"precipitation of amaranthin, in words",amaranthin [6],did not precipitate amaranthin
bovine submaxillary mucin,"precipitation of amaranthin, in words",amaranthin [6],did not form precipitates
"fetuin: fetuin, three O-linked oligosaccharide chains per molecule","precipitation of amaranthin, in words",amaranthin [6],did not precipitate amaranthin; also recorded: does not precipitate fetuin
laminin,"precipitation of amaranthin, in words",amaranthin [6],did not precipitate amaranthin
